In ChEMBL document CHEMBL5518244, “Design, Synthesis, and Biological Evaluation of a Novel NIK Inhibitor with Anti-Inflammatory and Hepatoprotective Effects for Sepsis Treatment” (J Med Chem, 2024):
pIC50: −log10 of the molar value. The source made the active and inactive calls. The rule behind the calls is not given here.

Key:
[1] = test system: COS-7; assay: Cytotoxicity against African green monkey COS-7 cells assessed as cell viability at 5 uM by CCK8 assay; assay type: toxicity, cell-based; settings: chlorocebus aethiops, cos-7, 5 µM
[2] = test system: RAW264.7; assay: Anti-inflammatory activity in mouse RAW264.7 cells assessed as suppression of LPS/CD40-induced IL-1beta secretion at 5 uM pretreated for 2 hrs followed stimulated with LPS/CD40 for 22 hrs by ELISA; assay type: functional, cell-based; settings: time 24.0 hrs
[3] = Half life in C57BL/6J mouse at 10 mg/kg, iv measured upto 24 hrs by LC-MS/MS analysis; assay type: ADME, organism-based; settings: in vivo
[4] = AUCinf in C57BL/6J mouse at 10 mg/kg, po measured upto 24 hrs by LC-MS/MS analysis; assay type: ADME, organism-based; settings: in vivo
[5] = Metabolic stability in rat liver microsomes assessed as half life at 1 uM measured upto 60 mins by LC-MS/MS analysis; assay type: ADME, Microsome
[6] = test system: Mus musculus; assay: Antisepsis effect in LPS-induced sepsis C57BL/6J mouse model assessed as prevention of liver injury by measuring decrease in serum AKP level at 10 mg/kg, ip measured after 7 days by biochemical assay; assay type: functional, organism-based; settings: time 7.0 day
[7] = Cmax in C57BL/6J mouse at 10 mg/kg, po measured upto 24 hrs by LC-MS/MS analysis; assay type: ADME, organism-based; settings: in vivo
[8] = Initial plasma concentration in C57BL/6J mouse at 10 mg/kg, iv measured upto 24 hrs by LC-MS/MS analysis; assay type: ADME, organism-based
[9] = test system: Mus musculus; assay: Antisepsis effect in LPS-induced sepsis C57BL/6J mouse model assessed as prevention of kidney injury at 10 mg/kg, ip measured after 7 days by hematoxylin and eosin staining based assay; assay type: functional, organism-based; settings: time 7.0 day
[10] = Metabolic stability in mouse liver microsomes assessed as intrinsic clearance at 1 uM measured upto 60 mins by LC-MS/MS analysis; assay type: ADME, Microsome; settings: read-out: CLH
[11] = test system: Mus musculus; assay: Antisepsis effect in LPS-induced sepsis C57BL/6J mouse model assessed as prevention of liver injury by measuring decrease in serum ALT level at 10 mg/kg, ip measured after 7 days by biochemical assay; assay type: functional, organism-based; settings: time 7.0 day
[12] = test system: RAW264.7; assay: Cytotoxicity against mouse RAW264.7 cells assessed as cell viability at 5 uM by CCK8 assay; assay type: toxicity, cell-based; settings: raw264.7, 5 µM
[13] = test system: Mus musculus; assay: Antisepsis effect in LPS-induced sepsis C57BL/6J mouse model assessed as prevention of necrosis in liver tissue at 10 mg/kg, ip measured after 7 days by hematoxylin and eosin staining based assay; assay type: functional, organism-based; settings: time 7.0 day
[14] = test system: RAW264.7; assay: Cytotoxicity against mouse RAW264.7 cells assessed as cell viability at 1 uM by CCK8 assay; assay type: toxicity, cell-based; settings: raw264.7, 1 µM
[15] = molecular target: AMP-activated protein kinase (AMPK) alpha-1/beta-1/gamma-1 (Homo sapiens, UniProt P54619+Q13131+Q9Y478); assay: Inhibition of AMPKalpha1/beta1/gamma1 (unknown origin) by ADP-Glo Kinase assay; assay type: protein-complex assay
[16] = test system: Mus musculus; assay: Antisepsis effect in LPS-induced sepsis C57BL/6J mouse model assessed as prevention of liver injury by measuring decrease in serum AST level at 10 mg/kg, ip measured after 7 days by biochemical assay; assay type: functional, organism-based; settings: time 7.0 day
[17] = test system: Mus musculus; assay: Inhibition of noncanonical NF-kappaB signaling pathway LPS-induced sepsis C57BL/6J mouse model assessed as decrease in p52 protein level at 10 mg/kg, ip measured after 7 days by immunoblotting analysis; assay type: functional, organism-based; settings: time 7.0 day
[18] = AUClast in C57BL/6J mouse at 10 mg/kg, po measured upto 24 hrs by LC-MS/MS analysis; assay type: ADME, organism-based; settings: in vivo
[19] = molecular target: T1, Mitogen-activated protein kinase kinase kinase 14 (Homo sapiens, UniProt Q99558); assay: Inhibition of NIK (unknown origin) incubated 30 to 60 mins by ADP-Glo Kinase
[20] = test system: Mus musculus; assay: Antisepsis effect in LPS-induced sepsis C57BL/6J mouse model assessed as prevention of lung injury at 10 mg/kg, ip measured after 7 days by hematoxylin and eosin staining based assay; assay type: functional, organism-based; settings: time 7.0 day
[21] = test system: RAW264.7; assay: Anti-inflammatory activity in mouse RAW264.7 cells assessed as suppression of LPS/CD40-induced IL-6 secretion at 5 uM pretreated for 2 hrs followed stimulated with LPS/CD40 for 22 hrs by ELISA; assay type: functional, cell-based; settings: time 24.0 hrs
[22] = Tmax in C57BL/6J mouse at 10 mg/kg, po measured upto 24 hrs by LC-MS/MS analysis; assay type: ADME, organism-based; settings: in vivo
[23] = test system: Mus musculus; assay: Antisepsis effect in LPS-induced sepsis C57BL/6J mouse model assessed as decrease in serum IFN-gamma level at 10 mg/kg, ip measured after 7 days by ELISA; assay type: functional, organism-based; settings: time 7.0 day
[24] = test system: Mus musculus; assay: Antisepsis effect in LPS-induced sepsis C57BL/6J mouse model assessed as decrease in serum IL-1beta level at 10 mg/kg, ip measured after 7 days by ELISA; assay type: functional, organism-based; settings: time 7.0 day
[25] = Metabolic stability in mouse liver microsomes assessed as half life at 1 uM measured upto 60 mins by LC-MS/MS analysis; assay type: ADME, Microsome
[26] = Metabolic stability in rat liver microsomes assessed as intrinsic clearance at 1 uM measured upto 60 mins by LC-MS/MS analysis; assay type: ADME, Microsome; settings: read-out: CLH
[27] = test system: Mus musculus; assay: Antisepsis effect in LPS-induced sepsis C57BL/6J mouse model assessed as decrease in serum IL-6 level at 10 mg/kg, ip measured after 7 days by ELISA; assay type: functional, organism-based; settings: time 7.0 day
[28] = test system: Mus musculus; assay: Antisepsis effect in LPS-induced sepsis C57BL/6J mouse model assessed as protection by measuring mouse survival at 10 mg/kg, ip measured at 48 hrs relative to control; assay type: functional, organism-based
[29] = Clearance in C57BL/6J mouse at 10 mg/kg, iv measured upto 24 hrs by LC-MS/MS analysis; assay type: ADME, organism-based; settings: in vivo
[30] = test system: Mus musculus; assay: Antisepsis effect in LPS-induced sepsis C57BL/6J mouse model assessed as decrease in serum TNFalpha level at 10 mg/kg, ip measured after 7 days by ELISA; assay type: functional, organism-based; settings: time 7.0 day
[31] = test system: Mus musculus; assay: Antisepsis effect in LPS-induced sepsis C57BL/6J mouse model assessed as decrease in serum CXCL-12 level at 10 mg/kg, ip measured after 7 days by ELISA; assay type: functional, organism-based; settings: time 7.0 day
[32] = test system: COS-7; assay: Cytotoxicity against African green monkey COS-7 cells assessed as cell viability at 1 uM by CCK8 assay; assay type: toxicity, cell-based; settings: chlorocebus aethiops, cos-7, 1 µM
[33] = AUClast in C57BL/6J mouse at 10 mg/kg, iv measured upto 24 hrs by LC-MS/MS analysis; assay type: ADME, organism-based; settings: in vivo
[34] = molecular target: T1, Mitogen-activated protein kinase kinase kinase 14; assay: Inhibition of NIK (unknown origin) expressed in COS-7 cells co-expressing NF-KappaB luciferase reporter assessed as suppression of luciferase reporter measured after 24 by beta-Gal activity assay; assay type: cell-based
[35] = AUCinf in C57BL/6J mouse at 10 mg/kg, iv measured upto 24 hrs by LC-MS/MS analysis; assay type: ADME, organism-based; settings: in vivo
[36] = test system: Mus musculus; assay: Antisepsis effect in LPS-induced sepsis C57BL/6J mouse model assessed as protection by measuring mouse survival at 10 mg/kg, ip measured after 7 days relative to control; assay type: functional, organism-based; settings: time 7.0 day
[37] = test system: Mus musculus; assay: Antisepsis effect in LPS-induced sepsis C57BL/6J mouse model assessed as prevention of tubular injury at 10 mg/kg, ip measured after 7 days by hematoxylin and eosin staining based assay; assay type: functional, organism-based; settings: time 7.0 day
[38] = test system: Mus musculus; assay: Antisepsis effect in LPS-induced sepsis C57BL/6J mouse model assessed as prevention of infiltration of inflammatory cells at 10 mg/kg, ip measured after 7 days by immunohistochemistry staining of F4/80 imaging based assay; assay type: functional, organism-based; settings: time 7.0 day
[39] = test system: RAW264.7; assay: Anti-inflammatory activity in mouse RAW264.7 cells assessed as suppression of LPS/CD40-induced TNFalpha secretion at 5 uM pretreated for 2 hrs followed stimulated with LPS/CD40 for 22 hrs by ELISA; assay type: functional, cell-based; settings: time 24.0 hrs
[40] = molecular target: Mitogen-activated protein kinase 8 (Homo sapiens, UniProt P45983); assay: Inhibition of JNK1 (unknown origin) by ADP-Glo Kinase assay
[41] = Half life in C57BL/6J mouse at 10 mg/kg, po measured upto 24 hrs by LC-MS/MS analysis; assay type: ADME, organism-based; settings: in vivo
[42] = test system: Macrophage; assay: Anti-inflammatory activity in mouse macrophages extracted from abdominal activity assessed as inhibition of LPS-induced nitric oxide production at 1 uM measured after 22 hrs by Griess reagent assay relative to control; assay type: functional, cell-based
[43] = test system: Mus musculus; assay: Inhibition of noncanonical NF-kappaB signaling pathway LPS-induced sepsis C57BL/6J mouse model assessed as increase in p100 protein level at 10 mg/kg, ip measured after 7 days by immunoblotting analysis; assay type: functional, organism-based; settings: time 7.0 day

T1 sequence (Q99558 whole entry): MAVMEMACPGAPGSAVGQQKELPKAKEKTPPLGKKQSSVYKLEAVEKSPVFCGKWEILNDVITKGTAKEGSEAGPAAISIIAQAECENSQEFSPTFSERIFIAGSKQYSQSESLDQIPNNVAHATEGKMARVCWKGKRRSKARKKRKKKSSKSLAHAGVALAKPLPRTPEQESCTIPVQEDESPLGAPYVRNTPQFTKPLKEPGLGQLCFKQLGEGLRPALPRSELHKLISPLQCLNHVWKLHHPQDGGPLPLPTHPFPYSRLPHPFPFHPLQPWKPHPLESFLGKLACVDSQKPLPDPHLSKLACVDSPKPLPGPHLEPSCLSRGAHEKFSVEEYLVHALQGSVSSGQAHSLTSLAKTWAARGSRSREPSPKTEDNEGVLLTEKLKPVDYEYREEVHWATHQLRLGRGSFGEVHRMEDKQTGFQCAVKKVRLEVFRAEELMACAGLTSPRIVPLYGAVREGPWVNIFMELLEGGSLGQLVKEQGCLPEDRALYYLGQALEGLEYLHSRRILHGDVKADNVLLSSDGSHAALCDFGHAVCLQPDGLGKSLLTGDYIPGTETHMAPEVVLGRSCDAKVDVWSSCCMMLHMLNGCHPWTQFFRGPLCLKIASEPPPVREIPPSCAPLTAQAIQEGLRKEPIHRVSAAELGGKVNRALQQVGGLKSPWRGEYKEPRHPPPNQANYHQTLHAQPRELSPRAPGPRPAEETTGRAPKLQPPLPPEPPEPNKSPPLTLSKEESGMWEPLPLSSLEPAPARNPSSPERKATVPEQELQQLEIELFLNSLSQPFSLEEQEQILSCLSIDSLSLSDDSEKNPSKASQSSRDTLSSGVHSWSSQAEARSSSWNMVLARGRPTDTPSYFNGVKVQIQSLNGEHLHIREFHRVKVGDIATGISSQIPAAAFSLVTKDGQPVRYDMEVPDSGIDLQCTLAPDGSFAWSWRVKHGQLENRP
Sequence of AMP-activated protein kinase (AMPK) alpha-1/beta-1/gamma-1 (P54619 whole entry): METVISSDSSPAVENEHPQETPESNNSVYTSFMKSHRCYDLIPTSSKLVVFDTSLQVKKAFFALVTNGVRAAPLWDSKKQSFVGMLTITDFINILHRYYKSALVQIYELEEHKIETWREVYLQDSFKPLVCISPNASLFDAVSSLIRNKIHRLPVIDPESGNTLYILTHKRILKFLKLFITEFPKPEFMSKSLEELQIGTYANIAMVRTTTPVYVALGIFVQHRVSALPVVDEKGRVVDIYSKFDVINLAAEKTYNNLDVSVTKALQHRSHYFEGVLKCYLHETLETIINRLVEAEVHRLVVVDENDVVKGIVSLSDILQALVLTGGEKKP
Sequence of AMP-activated protein kinase (AMPK) alpha-1/beta-1/gamma-1 (Q9Y478 whole entry): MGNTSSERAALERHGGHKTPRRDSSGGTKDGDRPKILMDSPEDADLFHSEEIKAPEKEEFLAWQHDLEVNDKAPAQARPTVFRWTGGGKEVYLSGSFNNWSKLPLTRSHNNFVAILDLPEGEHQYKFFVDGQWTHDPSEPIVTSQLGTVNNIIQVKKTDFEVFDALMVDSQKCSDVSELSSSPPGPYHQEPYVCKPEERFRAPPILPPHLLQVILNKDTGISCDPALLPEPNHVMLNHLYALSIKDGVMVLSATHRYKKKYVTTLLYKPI
Sequence of AMP-activated protein kinase (AMPK) alpha-1/beta-1/gamma-1 (Q13131 whole entry): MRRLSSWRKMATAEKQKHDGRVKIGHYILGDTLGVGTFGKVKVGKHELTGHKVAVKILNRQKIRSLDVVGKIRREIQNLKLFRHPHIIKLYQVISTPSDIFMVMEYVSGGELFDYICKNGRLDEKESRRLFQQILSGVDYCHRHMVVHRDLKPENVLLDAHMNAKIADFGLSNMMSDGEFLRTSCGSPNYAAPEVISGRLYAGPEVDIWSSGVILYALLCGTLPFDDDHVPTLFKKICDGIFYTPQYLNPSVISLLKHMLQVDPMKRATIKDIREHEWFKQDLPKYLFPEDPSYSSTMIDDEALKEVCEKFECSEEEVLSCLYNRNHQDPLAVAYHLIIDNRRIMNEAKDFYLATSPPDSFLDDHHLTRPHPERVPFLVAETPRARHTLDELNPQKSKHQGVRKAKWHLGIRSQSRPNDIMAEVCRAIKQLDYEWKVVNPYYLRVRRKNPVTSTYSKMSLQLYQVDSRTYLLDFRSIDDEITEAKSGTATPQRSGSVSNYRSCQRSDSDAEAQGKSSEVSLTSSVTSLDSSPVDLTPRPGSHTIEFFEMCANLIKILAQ
Sequence of Mitogen-activated protein kinase 8 (P45983 whole entry): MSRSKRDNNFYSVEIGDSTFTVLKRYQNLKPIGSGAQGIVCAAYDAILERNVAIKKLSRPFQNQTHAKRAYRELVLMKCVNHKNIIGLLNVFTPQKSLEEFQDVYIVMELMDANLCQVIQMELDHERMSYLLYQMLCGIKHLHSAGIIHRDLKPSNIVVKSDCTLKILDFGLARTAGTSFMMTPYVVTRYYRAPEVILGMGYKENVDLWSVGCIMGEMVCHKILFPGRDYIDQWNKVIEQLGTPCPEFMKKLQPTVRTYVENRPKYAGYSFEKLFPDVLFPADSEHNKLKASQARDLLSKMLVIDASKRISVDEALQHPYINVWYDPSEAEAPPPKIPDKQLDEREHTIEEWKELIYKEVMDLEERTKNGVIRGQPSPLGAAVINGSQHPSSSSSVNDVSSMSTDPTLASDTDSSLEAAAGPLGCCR

half-life [3]: 44.5 min
AUC(0-inf) [4]: 2550 ng·h/mL
half-life at 1 µM [5]: 25.9 min
Cmax [7]: 1280 ng/mL
C0 at 24 h [8]: 5060 ng/mL
microsomal CLint at 1 µM [10]: 71 µL/min/mg
pIC50 [15]: 3.54
AUC(0-t) at 24 h [18]: 2520 ng·h/mL
pIC50 [19]: 8.90
Tmax [22]: 30 min
half-life at 1 µM [25]: 19.5 min
microsomal CLint at 1 µM [26]: 53.6 µL/min/mg
clearance [29]: 56.2 mL/min/kg
AUC(0-t) at 24 h [33]: 3020 ng·h/mL
pIC50 [34]: 5.92
AUC(0-inf) [35]: 3020 ng·h/mL
pIC50 [40]: 3.27
half-life [41]: 136 min
pIC50 [42]: 4.11
SMILES: COc1cc(Nc2nccc(N3CCCn4nc(C#C[C@@](C)(O)c5nccs5)cc43)n2)cc(OC)c1
Activity [1]: Non-Toxic
Activity [2]: Active
Activity [6]: Active
Activity [9]: Active
Activity [11]: Active
Activity [12]: Non-Toxic
Activity [13]: Active
Activity [14]: Non-Toxic
Activity [16]: Active
Activity [17]: Active
Activity [20]: Active
Activity [21]: Active
Activity [23]: Active
Activity [24]: Active
Activity [27]: Active
Activity [28]: Active
Activity [30]: Active
Activity [31]: Active
Activity [32]: Non-Toxic
Activity [36]: Active
Activity [37]: Active
Activity [38]: Active
Activity [39]: Active
Activity [43]: Active
